# Measurements reported in US20160206579A1 (INSERM (Institut National de la Santé et de la Recherche …, priority 2009, published 2016).
# Columns and labels:
# [1] = test system: RGCs in rat retinal explants; test: NMDA-treated retinal explants, Brn-3a-immunopositive RGC density on flat-mounts; conditions: for RGC density (Brn-3a-immunopositive): mean±s.e.m.
# Protocol: E) Quantification of RGC densities from whole flat-mounted retinal explants using the automated counting platform. […] The scale bar represents 100 μm.
# At the end of the incubation, RGCs were immunolabeled with an anti-Brn-3a antibody.
# retinal ganglion cells [2] = test: Retinal ganglion cell degeneration induced by vigabatrin in young rats, Brn3A-positive RGC count in retinal sections; assay type: in vivo, Wistar rats
# Protocol: Breeds of Wistar rats Rj Wi IOPS Han were purchased from Janvier (Le Genest-St-Isle, France). Vigabatrin (VGB) dissolved in 0.9% NaCl was administered at 0.6 mg/jour (6 mg/ml, 0.1 ml) to rats by daily intraperitoneal injection for 25 days from age 4 days. These daily doses (50 mg/kg for rats of 12 g) are in-line with those described for the treatment of epilepsy (adult patients: […]; children:50-75 mg/kg; or infants: 100-150 mg/kg) (Aicardi et al., 1996; Chiron et al., 1997; Lux et al., 2004).
# Animals were anesthetized by intraperitoneal injection (0.8 to 1.2 ml/kg) of a solution containing ketamine (40 mg/ml) and xylazine (4 mg/ml Rompum). They were then perfused first with heparin 1000 UI/ml in saline solution (0.9% NaCl), then with fixative containing 4% Paraformaldehyde (Merck chemicals ref.: 100496) and 0.2% glutaraldehyde (fluka 25%). Eye cups were isolated and fixed overnight at 4° C. in 4% (wt/vol) paraformaldehyde in phosphate buffered saline (PBS; 0.01M, pH 7.4). The tissue was cryoprotected in successive solutions of PBS containing 10%, 20% and 30% sucrose at 4° C., oriented along the dorso-ventral axis and embedded in OCT (Labonord, Villeneuve d'Ascq, France). Retinal sections (8-10 μm thickness) were permeabilised for five minutes in PBS containing 0.1% Triton X-100 (Sigma, St. Louis, Mo.), rinsed, and incubated in PBS containing 1% bovine serum albumin (Eurobio, Les-Ulis, France), 0.1% Tween 20 (Sigma), and 0.1% sodium azide (Merck, Fontenay-Sous-Bois, France) for two hours at room temperature. The primary Brn3A monoclonal antibody (Chemicon) was added to the solution and incubated for two hours at room temperature. Sections were rinsed and then incubated with the secondary antibody, rabbit anti-mouse IgG conjugated to either Alexa™594 (1:500, Molecular Probes) for two hours. […] Quantifications were achieved on whole vertical sections cut along the dorso-ventral axis and crossing the optic nerve. […]
# optic nerve = conditions: treated infants; Frisen and Malmgren 2003, Viestenz et al. 2003, Buncic et al. 2004; cited from earlier work
# [3] = test system: glutamate N-methyl-D-aspartate (NMDA) receptors; conditions: Seki M et al., 2008; cited from earlier work
# [4] = test system: pure adult rat RGC in culture; test: Survival of pure cultured retinal ganglion cells (live-dead viability test, 6 DIV vs 1 DIV); assay type: cell-based, Long Evans rat; conditions: 1 mM taurine, 6 days in culture
# Description: Primary cultures of pure ganglion cells: Primary cultures of retinal ganglion cells (RGC) were isolated from retinae of adult Long Evans rat (8-week old) with an immunopanning technique, according the protocol previously described in young rats by Barres et al. (1988). Briefly, animals were anesthetized and killed by cerebral dislocation and their eyes removed and placed in a solution of phosphate-buffered saline (PBS) containing 1 g/1 of glucose (PBS-glucose; Invitrogen, Carlsbad, Calif., USA). After one rinse in PBS-glucose, retinae were incubated in the same medium containing 33 UI/ml of papain (Worthington, Lakewood, N.J., USA) and 200 UI/ml of DNAse (Sigma-Aldrich, St-Louis, MO, USA) for 30 min at 37° C. They were then rinsed in PBS-glucose, containing 0.15% ovomucoid (Roche Diagnosis, Basel, Switzerland) and 0.15% bovine serum albumin (BSA; Sigma-Aldrich). […]
# RGC viability was assessed with the “lived-dead” test (Invitrogen), which consists in labelling viable cells with calcein AM detected as a green fluorescence, whereas dead cell were labelled with ethidium producing a red fluorescence. […] Only lived RCG were counted from seven fields taken on each coverslip using a microscope (Leica DM 5000B, Solms, Germany) equipped for epifluorescence. Viable RCG were counted at 1 day in vitro (DIV) and 6 DIV to calculate the percentage of cell survival.
# retinal ganglion cells [5] = test: Episcleral vein occlusion rat model of glaucoma (taurine plasma level, IOP, photopic ERG, Brn-3a RGC count); assay type: in vivo, Long-Evans rats; conditions: taurine 0.2 M in drinking water, 3 months after occlusion, vs water animals; statistically significant
# Protocol: Long-Evans rats (8-week old) were purchased from Janvier (Le Genest-St-Isle, France) whereas DBA/2J mice (8-month old) were purchased from Charles River (Larbresle, France). Heterozygous P23H rats (line 1) and Sprague Dawley rats (n=7) were bred at Charles River (Saint Aubin-les-Elbeuf, France).
# Occlusion of episcleral veins was performed on 8 week-old Long-Evans or Wistar rats as described previously (Mittag et al., 2000). Animals were anesthetized with a mixture Ketamine (100 mg/Kg; Virbac, France) and, Xylazine (10 mg/Kg; Bayer, Leverkusen, Germany), and a local anesthesia (Tetracaine, Laboratoires TVM, Lempdes, France) were administrated on the cornea. At the level of the right eye, three episcleral veins, superonasal, superotemporal and inferotemporal, were emerged by removing the conjunctive tissue. Vein occlusion was realized by cauterization, using Aesculap® bipolar forceps (B. Braun, Melsungen, Germany). […]
# IOP was measured from right and left eyes on awake animals using a Tonolab tonometer (Icare, Helsinki, Finland). The tonometer was applied perpendicularly to the cornea and three successive measures were recorded and the average was taken for the final value of IOP.
# Photopic ERGs were performed on cauterized and control eyes from rats and DBA2/J mice. […] ERG were recorded using two gold loop electrodes were placed on the corneal surface of each eye and maintained with 3% Ocry-gel. […]
# retinal ganglion cells [6] = test: DBA/2J mice, model of pigmentary glaucoma (taurine plasma level, photopic ERG); assay type: in vivo; conditions: 12-month old DBA/2J mice, taurine supplementation for 4 months vs pure water
# Protocol: Photopic ERGs were performed on cauterized and control eyes from rats and DBA2/J mice. Animals were anesthetized by an intramuscular injection with a solution containing a mixture of Ketamine (100 mg/Kg) and, Xylazine (10 mg/Kg). Pupils were dilated by a topical application of Mydriaticum, Laboratoires Thea, Clermont-Ferrand, France). ERG were recorded using two gold loop electrodes were placed on the corneal surface of each eye and maintained with 3% Ocry-gel. These recording electrodes were respectively referenced with two steel electrodes, inserted sub-cuteanously at the level of each cheek of animals. A needle electrode, also inserted sub-cuteanously, at the level of the basis of the tail served as ground. Responses to light stimulus were amplified, filtered and digitalized using the “Multiliner vision” program.
# Statistical analysis of the results was performed on raw data. An unpaired student t test was used to compare means of 2 groups. For more than 2 groups compared, a one-way ANOVA was used for variance analysis, followed in case of significance by a Bonferroni post-hoc test to compare the means of each group. Differences were considered significant at *P<0.05; **P<0.01; and ***P<0.001.
# retinal ganglion cells [7] = test: P23H rat model of retinitis pigmentosa, Brn3a immunopositive RGC count in retinal sections; assay type: in vivo, heterozygous P23H rats
# Description: Long-Evans rats (8-week old) were purchased from Janvier (Le Genest-St-Isle, France) whereas DBA/2J mice (8-month old) were purchased from Charles River (Larbresle, France). Heterozygous P23H rats and Sprague Dawley rats (n=7) were bred at Charles River (Saint Aubin-les-Elbeuf, France). For taurine supplementation, animals were divided in two groups: a control group and a group receiving taurine in its drinking water. […] Animals drinking water without added taurine were always considered as control animals.
# Animals were anesthetized and killed by cerebral dislocation and their eyes were removed and placed into a fixative solution containing 4% paraformaldehyde (Merck chemicals, Darmstadt, Germany) for 24 hours. Eye cups were isolated and cryoprotected in successive solutions of PBS containing 10%, 20% and 30% sucrose at 4° C., oriented along the dorso-ventral axis and embedded in NEG50® (Microm, Francheville, France). Retinal sections were permeabilized for five minutes in PBS containing 0.1% Triton X-100 (Sigma, St. Louis, Mo.), rinsed, and incubated in PBS containing 1% bovine serum albumin (Sigma) and 0.05% Tween 20 (Sigma) for one hour at room temperature. […] Quantifications were achieved on whole vertical sections cut along the dorso-ventral axis and crossing the optic nerve. […]
compound,measurement,setting,value
"CN[C@H](CC(=O)O)C(=O)O [NMDA, N-methyl-D-aspartate, reference compound]",RGC density (Brn-3a-immunopositive),"[1]; 100 μM NMDA for 4 days, control 996.0±26.5, n=31",555.6±31.8 cells/mm2
same,reduction in RGC density vs control,"[1]; 100 μM NMDA for 4 days, p<0.001",−44%
"C=CC(N)CCC(=O)O (stereo not drawn) [VGB, Vigabatrin]",decrease in number of retinal ganglion cells vs control,"retinal ganglion cells [2]; young rats treated with VGB, p<0.001",56%
same,"number of retinal ganglion cells (Brn3A-positive, retinal sections)","retinal ganglion cells [2]; young rats, VGB 0.6 mg/day i.p. for 25 days from age 4 days, control 15.06±0.93, s.e.m., n=10",6.56±0.32
same,optic nerve atrophy,optic nerve,induced an optic nerve atrophy
CC12CC3CC(C)(C1)CC(N)(C3)C2 [memantine],RGC neuroprotection in models of glaucoma,[3],exert an RGC neuroprotection
"NCCS(=O)(=O)O [taurine, 2-aminoethanesulfonic acid]",number of retinal ganglion cells greater than in VGB-treated group without supplementation,"retinal ganglion cells [2]; VGB-treated rats with taurine supplementation, p<0.001",84.9%
same,increase in number of surviving cells vs control conditions,[4],49%
same,RGC survival at 6 DIV as percentage of that at 1 DIV,"[4]; control conditions 18.2±1.8%, mean±SEM",27.2±3.7%
same,decrease in photopic ERG amplitudes on operated eye,retinal ganglion cells [5],less important than in animals without taurine supplementation
same,decrease in photopic ERG amplitudes,retinal ganglion cells [6],partially prevented
same,"average RGC number (brn3a immunopositive, retinal sections)","retinal ganglion cells [7]; taurine 0.1 M in drinking water from 9 to 12 months, n=6, untreated P23H 298±12, Sprague-Dawley control 411±19, mean±SEM",344±8
same,RGC loss prevented,"retinal ganglion cells [7]; taurine 0.1 M in drinking water, P<0.01 vs untreated P23H",40%
same,cell loss rescued by co-incubation with NMDA,[1]; 100 μM NMDA plus 1 mM taurine for 4 days,22%
same,RGC density (Brn-3a-immunopositive),"[1]; 100 μM NMDA plus 1 mM taurine for 4 days, n=23, p<0.05 vs NMDA",655.7±44.4 cells/mm2
